Data reported in patent US9790230B2 (Hoffmann-La Roche Inc., priority 2015, dated 2017).
Read-outs that look alike come from different tables or passages of the source.

Experiments:
[1] = biological target: rat TAAR1 (Rattus norvegicus (Rat), UniProt Q923Y9); assay: Radioligand binding assay on rat TAAR1;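 further: membranes from HEK293 cells stably transfected with rat TAAR1, tritiated TAAR1 radioligand, 1 h incubation at 4 °C, nonspecific binding determined with excess unlabeled ligand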
Procedure: Membrane Preparation and Radioligand Binding.
HEK-293 cells stably expressing rat TAAR1 were maintained at 37° C. and 5% CO2 in DMEM high glucose medium, containing fetal calf serum (10%, heat inactivated for 30 min at 56° C.), penicillin/streptomycin (1%), and 375 μg/ml geneticin (Gibco). Cells were released from culture flasks using trypsin/EDTA, harvested, washed twice with ice-cold PBS (without Ca^2+ and Mg^2+), pelleted at 1'000 rpm for 5 min at 4° C., frozen and stored at −80° C. Frozen pellets were suspended in 20 ml HEPES-NaOH (20 mM, pH 7.4) containing 10 mM EDTA and homogenized with a Polytron (PT 6000, Kinematica) at 14′000 rpm for 20 s. The homogenate was centrifuged at 48'000×g for 30 min at 4° C. Subsequently, the supernatant was removed and discarded, and the pellet resuspended in 20 ml HEPES-NaOH (20 mM, pH 7.4) containing 0.1 mM EDTA using the Polytron (20 s at 14'000 rpm). This procedure was repeated and the final pellet resuspended in HEPES-NaOH containing 0.1 mM EDTA and homogenized using the Polytron. Typically, aliquots of 2 ml membrane portions were stored at −80° C. With each new membrane batch the dissociation constant (Kd) was determined via a saturation curve. […] Nonspecific binding was defined as the amount of 3 [H]—(S)-4-[(ethyl-phenyl-amino)-methyl]-4,5-dihydro-oxazol-2-ylamine bound in the presence of 10 M unlabeled ligand. All compounds were tested at a broad range of concentrations (10 pM to 10 μM) in duplicates. […] The 96 deep well plates were incubated for 1 hr at 4° C. Incubations were terminated by rapid filtration through Unifilter-96 plates (Packard Instrument Company) and glass filters GF/C (Perkin Elmer) presoaked for 1 hr in polyethylenimine (0.3%) and washed 3 times with 1 ml of cold binding buffer. After addition of 45 μl of Microscint 40 (PerkinElmer) the Unifilter-96 plate was sealed and after 1 hr the radioactivity counted using a TopCount Microplate Scintillation Counter (Packard Instrument Company).

[2] = biological target: mouse TAAR1 (Mus musculus (Mouse), UniProt Q923Y8); assay: Radioligand binding assay on mouse TAAR1
Chain of mouse TAAR1 (Q923Y8 whole entry): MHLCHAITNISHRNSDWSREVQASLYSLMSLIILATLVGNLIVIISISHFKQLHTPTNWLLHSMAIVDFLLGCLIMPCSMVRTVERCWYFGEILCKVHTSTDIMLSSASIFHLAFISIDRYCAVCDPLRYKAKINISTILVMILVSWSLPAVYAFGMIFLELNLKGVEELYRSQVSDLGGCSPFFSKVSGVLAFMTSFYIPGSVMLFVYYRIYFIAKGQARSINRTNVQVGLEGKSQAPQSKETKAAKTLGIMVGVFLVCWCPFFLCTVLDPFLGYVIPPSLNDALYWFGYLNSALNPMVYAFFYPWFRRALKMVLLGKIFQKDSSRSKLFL

Chain of rat TAAR1 (Q923Y9 whole entry): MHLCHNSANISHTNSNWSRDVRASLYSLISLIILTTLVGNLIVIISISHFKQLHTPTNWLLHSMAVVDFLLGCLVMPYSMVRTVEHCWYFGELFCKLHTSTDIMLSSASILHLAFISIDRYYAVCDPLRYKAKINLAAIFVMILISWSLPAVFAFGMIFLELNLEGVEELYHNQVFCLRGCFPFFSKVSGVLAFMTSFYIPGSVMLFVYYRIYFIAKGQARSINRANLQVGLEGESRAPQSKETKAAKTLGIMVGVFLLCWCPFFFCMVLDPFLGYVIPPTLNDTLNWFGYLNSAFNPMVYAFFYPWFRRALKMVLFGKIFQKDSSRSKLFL

Structure (SMILES)	Ki [1] [µM]	Ki [2] [nM]	Ki ([1]; read-out: Ki (μM) rat, rat TAAR1, HEK-293 membranes, second value of cell mouse/rat) [µM]
O=C(Nc1ccc([C@@H]2O[C@H]3CN[C@@H]2C3)cc1)c1cccc(Cl)c1 [Example 10, 3-Chloro-N-[4-[(1R,3S,4R)-2-oxa-5-azabicyclo[2.2.1]heptan-3-yl]phenyl]benzamide]	0.055	4.2	–
O=C(Nc1ccc([C@@H]2O[C@H]3CN[C@@H]2C3)cc1)c1ccc(OCC2CC2)cc1 [Example 12, 4-(Cyclopropylmethoxy)-N-[4-[(1R,3S,4R)-2-oxa-5-azabicyclo[2.2.1]heptan-3-yl]phenyl]benzamide]	0.134	6.7	–
O=C(NCc1ccc(C(F)(F)F)cc1)c1ccc([C@@H]2O[C@H]3CN[C@@H]2C3)cc1 [Example 96, 4-[(1R,3S,4R)-2-Oxa-5-azabicyclo[2.2.1]heptan-3-yl]-N-[[4-(trifluoromethyl)phenyl]methyl]benzamide]	> 1.45	47.7	–
CCOc1n[nH]c(C(=O)Nc2ccc([C@H]3O[C@@H]4CN[C@H]3C4)cc2)c1Cl [Example 45, 4-Chloro-3-ethoxy-N-[4-[(1S,3R,4S)-2-oxa-5-azabicyclo[2.2.1]heptan-3-yl]phenyl]-1H-pyrazole-5-carboxamide]	0.21	4.2	–
O=C(Nc1ccc([C@H]2O[C@@H]3CN[C@H]2C3)cc1)c1cnc(C2CC2)nc1 [Example 18, 2-Cyclopropyl-N-[4-[(1S,3R,4S)-2-oxa-5-azabicyclo[2.2.1]heptan-3-yl]phenyl]pyrimidine-5-carboxamide]	2.03	38	–
O=C(COCCC(F)(F)F)Nc1ccc([C@H]2O[C@@H]3CN[C@H]2C3)cc1 [Example 70, N-[4-[(1S,3R,4S)-2-Oxa-5-azabicyclo[2.2.1]heptan-3-yl]phenyl]-2-(3,3,3-trifluoropropoxy)acetamide]	0.512	9.4	–
Clc1ccc(CNc2ccc([C@H]3O[C@@H]4CN[C@H]3C4)cc2)cc1 [Example 38, N-[(4-Chlorophenyl)methyl]-4-[(1S,3R,4S)-2-oxa-5-azabicyclo[2.2.1]heptan-3-yl]aniline]	0.167	562	–
O=C(Nc1ccc(Cl)cc1)c1ccc([C@H]2O[C@@H]3CN[C@H]2C3)cc1 [Example 55]	0.0123	0.7	–
CCCCNc1ccc([C@H]2O[C@@H]3CN[C@H]2C3)cc1 [Example 41, N-Butyl-4-[(1S,3R,4S)-2-oxa-5-azabicyclo[2.2.1]heptan-3-yl]aniline]	–	22.2	2.83
O=C(Nc1ccc([C@H]2O[C@@H]3CN[C@H]2C3)cc1)c1ccc(OCC(F)(F)F)nc1 [Example 16, N-[4-[(1S,3R,4S)-2-Oxa-5-azabicyclo[2.2.1]heptan-3-yl]phenyl]-6-(2,2,2-trifluoroethoxy)pyridine-3-carboxamide]	0.142	11.8	–
Cc1n[nH]c(C(=O)Nc2ccc([C@H]3O[C@@H]4CN[C@H]3C4)cc2)c1Cl [Example 46, 4-Chloro-3-methyl-N-[4-[(1S,3R,4S)-2-oxa-5-azabicyclo[2.2.1]heptan-3-yl]phenyl]-1H-pyrazole-5-carboxamide]	0.673	9.8	–
O=C(Nc1ccc([C@H]2O[C@@H]3CN[C@H]2C3)cc1)c1ccc(C(F)(F)F)cn1 [Example 36, N-[4-[(1S,3R,4S)-2-Oxa-5-azabicyclo[2.2.1]heptan-3-yl]phenyl]-5-(trifluoromethyl)pyridine-2-carboxamide]	1.28	32.5	–
CCOc1ccc(NC(=O)c2ccc([C@@H]3O[C@H]4CN[C@@H]3C4)cc2)cc1 [Example 88, N-(4-Ethoxyphenyl)-4-[(1R,3S,4R)-2-oxa-5-azabicyclo[2.2.1]heptan-3-yl]benzamide]	> 1.45	25.5	–
O=C(Nc1ccc([C@@H]2O[C@H]3CN[C@@H]2C3)cc1)c1cnc(C2CC2)nc1 [Example 29, 2-Cyclopropyl-N-[4-[(1R,3S,4R)-2-oxa-5-azabicyclo[2.2.1]heptan-3-yl]phenyl]pyrimidine-5-carboxamide]	0.0438	31.5	–
FC(F)(F)c1cnc(Nc2ccc([C@@H]3O[C@H]4CN[C@@H]3C4)cc2)nc1 [Example 31, N-[4-[(1R,3S,4R)-2-Oxa-5-azabicyclo[2.2.1]heptan-3-yl]phenyl]-5-(trifluoromethyl)pyrimidin-2-amine]	0.0777	22.1	–
O=C(Nc1ccc([C@H]2O[C@@H]3CN[C@H]2C3)cc1)c1ccc(Cl)cc1 [Example 14, 4-Chloro-N-[4-[(1S,3R,4S)-2-oxa-5-azabicyclo[2.2.1]heptan-3-yl]phenyl]benzamide]	0.192	5	–
O=C(Nc1ccc(Cl)cc1)Nc1ccc([C@H]2O[C@@H]3CN[C@H]2C3)cc1 [Example 33, 1-(4-Chlorophenyl)-3-[4-[(1S,3R,4S)-2-oxa-5-azabicyclo[2.2.1]heptan-3-yl]phenyl]urea]	0.0116	3.5	–
O=C(Nc1ccc(Cl)nc1)c1ccc([C@H]2O[C@@H]3CN[C@H]2C3)cc1 [Example 60, N-(6-Chloro-3-pyridyl)-4-[(1S,3R,4S)-2-oxa-5-azabicyclo[2.2.1]heptan-3-yl]benzamide]	5.34	3.3	–
O=C(Nc1ccc(Cl)cc1)Nc1cccc([C@@H]2O[C@H]3CN[C@@H]2C3)c1 [Example 4, 1-(4-Chlorophenyl)-3-[3-[(1R,3S,4R)-2-oxa-5-azabicyclo[2.2.1]heptan-3-yl]phenyl]urea]	0.0102	1280	–
FC(F)(F)Oc1ccc(CNc2ccc([C@H]3O[C@@H]4CN[C@H]3C4)cc2)cc1 [Example 52, 4-[(1S,3R,4S)-2-Oxa-5-azabicyclo[2.2.1]heptan-3-yl]-N-[[4-(trifluoromethoxy)phenyl]methyl]aniline]	0.194	4.3	–
O=C(Nc1ccc([C@H]2O[C@@H]3CN[C@H]2C3)cc1)c1ccc(C(F)(F)F)nc1 [Example 44, N-[4-[(1S,3R,4S)-2-Oxa-5-azabicyclo[2.2.1]heptan-3-yl]phenyl]-6-(trifluoromethyl)pyridine-3-carboxamide]	0.0848	11.1	–
O=C(Nc1ccc(Cl)nc1)c1ccc([C@@H]2O[C@H]3CN[C@@H]2C3)cc1 [Example 94, N-(6-Chloro-3-pyridyl)-4-[(1R,3S,4R)-2-oxa-5-azabicyclo[2.2.1]heptan-3-yl]benzamide]	> 1.45	25.1	–
Brc1ccc([C@@H]2O[C@H]3CN[C@@H]2C3)cc1 [Example 54, (1R,3S,4R)-3-(4-Bromophenyl)-2-oxa-5-azabicyclo[2.2.1]heptane]	0.0346	145	–

Further lines, with some results ahead:

Ki [1] [µM]	Ki [2] [nM]	Structure (SMILES)	Ki ([1]; read-out: Ki (μM) rat, rat TAAR1, HEK-293 membranes, second value of cell mouse/rat) [µM]
0.239	9.9	CC(C)c1cc(C(=O)Nc2ccc([C@@H]3O[C@H]4CN[C@@H]3C4)cc2)[nH]n1 [Example 75, 3-Isopropyl-N-[4-[(1R,3S,4R)-2-oxa-5-azabicyclo[2.2.1]heptan-3-yl]phenyl]-1H-pyrazole-5-carboxamide]	–
0.0458	3.4	O=C(Nc1ccc(F)cc1)c1ccc([C@H]2O[C@@H]3CN[C@H]2C3)cc1 [Example 57, N-(4-Fluorophenyl)-4-[(1S,3R,4S)-2-oxa-5-azabicyclo[2.2.1]heptan-3-yl]benzamide]	–
0.037	4.4	CCCc1n[nH]c(C(=O)Nc2ccc([C@H]3O[C@@H]4CN[C@H]3C4)cc2)c1Cl [Example 49, 4-Chloro-N-[4-[(1S,3R,4S)-2-oxa-5-azabicyclo[2.2.1]heptan-3-yl]phenyl]-3-propyl-1H-pyrazole-5-carboxamide]	–
0.0179	3.1	CCCc1n[nH]c(C(=O)Nc2ccc([C@@H]3O[C@H]4CN[C@@H]3C4)cc2)c1Cl [Example 68, 4-Chloro-N-[4-[(1R,3S,4R)-2-oxa-5-azabicyclo[2.2.1]heptan-3-yl]phenyl]-3-propyl-1H-pyrazole-5-carboxamide]	–
0.103	4.2	CCCc1n[nH]c(C(=O)Nc2ccc([C@@H]3O[C@H]4CN[C@@H]3C4)cc2)c1F [Example 78, 4-Fluoro-N-[4-[(1R,3S,4R)-2-oxa-5-azabicyclo[2.2.1]heptan-3-yl]phenyl]-3-propyl-1H-pyrazole-5-carboxamide]	–
> 15	17.2	O=C(CCC(F)(F)F)Nc1ccc([C@H]2O[C@@H]3CN[C@H]2C3)cc1 [Example 84, 4,4,4-Trifluoro-N-[4-[(1S,3R,4S)-2-oxa-5-azabicyclo[2.2.1]heptan-3-yl]phenyl]butanamide]	–
> 1.45	51.1	O=C(NCc1ccc(Cl)cc1)c1ccc([C@@H]2O[C@H]3CN[C@@H]2C3)cc1 [Example 97, N-[(4-Chlorophenyl)methyl]-4-[(1R,3S,4R)-2-oxa-5-azabicyclo[2.2.1]heptan-3-yl]benzamide]	–
1.35	11.4	CCCc1c(Cl)c(C(=O)Nc2ccc([C@H]3O[C@@H]4CN[C@H]3C4)cc2)nn1C [Example 48, 4-Chloro-1-methyl-N-[4-[(1S,3R,4S)-2-oxa-5-azabicyclo[2.2.1]heptan-3-yl]phenyl]-5-propyl-pyrazole-3-carboxamide]	–
2.3	313	Cc1cn[nH]c1C(=O)Nc1ccc([C@H]2O[C@@H]3CN[C@H]2C3)cc1 [Example 47, 4-Methyl-N-[4-[(1S,3R,4S)-2-oxa-5-azabicyclo[2.2.1]heptan-3-yl]phenyl]-1H-pyrazole-5-carboxamide]	–
0.857	17.7	O=C(COCC(F)(F)F)Nc1ccc([C@@H]2O[C@H]3CN[C@@H]2C3)cc1 [Example 73, N-[4-[(1R,3S,4R)-2-Oxa-5-azabicyclo[2.2.1]heptan-3-yl]phenyl]-2-(2,2,2-trifluoroethoxy)acetamide]	–
0.0702	2070	COCCCNc1ccc([C@H]2O[C@@H]3CN[C@H]2C3)cc1 [Example 65, N-(3-Methoxypropyl)-4-[(1S,3R,4S)-2-oxa-5-azabicyclo[2.2.1]heptan-3-yl]aniline]	–
0.0745	6.8	CCOc1n[nH]c(C(=O)Nc2ccc([C@@H]3O[C@H]4CN[C@@H]3C4)cc2)c1Cl [Example 98, 4-Chloro-3-ethoxy-N-[4-[(1R,3S,4R)-2-oxa-5-azabicyclo[2.2.1]heptan-3-yl]phenyl]-1H-pyrazole-5-carboxamide]	–
